Reference: patent US11168287B2, “Anti-adherent compositions and methods of inhibiting the adherence of microbes to a surface” (Kimberly-Clark Worldwide, Inc., priority 2016, dated 2021)

Key:
E. coli ATCC 11229 = assay: High Throughput Attachment Test Method (bacterial attachment to MBEC pegs), E. coli; format: cell-based, Escherichia coli; conditions: pegs coated with compound in 5% glycerin and QS water; Con. Wt. %: #1,4,5,6 = 5; #2,3 = 2; #7,8,9 = 100; 15 min bacterial challenge
Experimental: (§1) Anti-adherent compositions including anti-adherent agents as discussed herein were tested against bacteria using the High Throughput Attachment Test Method. The High Throughput Attachment Test Method is discussed in further detail below. The anti-adherent compositions including the anti-adherent agents were tested against Gram-positive Staphylococcus aureus, and Gram-negative Escherichia coll. The pH of the compositions for this testing between 3 to 10 pH, or about 4 to about 8 pH.
(§2) This test method specifies the operational parameters required to grow and or prevent the formation of bacterial attachment using a high throughput screening assay. The assay device consists of a plastic lid with ninety-six (96) pegs and a corresponding receiver plate with ninety-six (96) individual wells that have a maximum 200 μL working volume. Biofilm is established on the pegs under static batch conditions (i.e., no flow of nutrients into or out of an individual well).
(§3) 6.1.1 E. coli ATCC 11229 and S. aureus ATCC 6538 are the organisms used in this test.
(§4) 6.1.5 Incubate flask at 35±2° C. and 175±10 rpm for 16 to 18 hours (E. coli and S. aureus). Viable bacterial density should be 10^9 CFU/mL and should be checked by serial dilution and plating.
(§5) 6.1.6 Pipette 10 mL from the incubation flask of E. coli and S. aureus into a 50 mL conical tube and spin down at 5 minutes at 4,000×g. Then remove supernatant and Resuspend in 10 mL sterile PBS. Approximate cell density should be 10^7-10^9 CFU/mL. Vortex the sample for approximately 30 seconds to achieve a homogeneous distribution of cells.
(§6) 6.2.1.1.1 Using a positive displacement pipette aseptically add 200 μL of compounds and control to be tested to a sterile 96-well microplate according to the plate layout of Table 4 below.
(§7) 6.2.1.1.3 Place the MBEC plate lid, peg side down into the 96-well microplate containing the test compound solutions.
(§8) 6.2.1.1.4 Allow the plate to sit at room temperature (25±3° C.) for 2 hours.
(§9) 6.2.1.1.5 Remove the MBEC plate lid and allow the lid to dry at room temperature (25±3° C.) overnight in a laminar flow hood. […]

S. aureus ATCC 6538 = assay: High Throughput Attachment Test Method (bacterial attachment to MBEC pegs), S. aureus; format: cell-based, Staphylococcus aureus; conditions: pegs coated with compound in 5% glycerin and QS water; Con. Wt. %: #1,4,5,6 = 5; #2,3 = 2; #7,8,9 = 100; 15 min bacterial challenge
Experimental: as §1, §2, §3, §4, §5, §6, §7, §8, §9

MS2 = assay: High Throughput Test to Quantify the Attachment of Phage to a Surface, RNA virus MS2; conditions: for MS2 Percent Reduct. (%) / MS2 Log R (PFU/mL) compared to growth controls: pegs coated with compound in 5% glycerin and QS water, Con. Wt. %: #1,4,5,6 = 5, #2,3 = 2, #7,8,9 = 100, 1 hour phage contact; for MS2 Log R (PFU/mL) compared to growth controls: positive = inhibits attachment; for Effect against RNA viruses (MS2), in words: positive logarithmic reduction at statistically significant level = anti-adherent
Experimental: (§10) The anti-adherent compositions that inhibit the attachment of RNA and/or DNA viruses to a surface including compounds serving as anti-adherent agents against RNA and DNA viruses were tested against RNA and DNA viruses via the High Throughput Test to Quantify the Attachment of Phage to a Surface, as discussed in detail below. Tables 2 and 3 below show the variety of compounds that were tested as agents in a composition, as well as the results that related to the percent reduction in viruses and the Logarithmic Reduction compared to growth controls. As will be discussed in further detail below in the discussion regarding the High Throughput Test to Quantify the Attachment of Phage to a Surface, a positive logarithmic reduction in viruses equates to anti-adherent properties (e.g., inhibits attachment), and a negative logarithmic reduction in viruses equates to adherent properties (e.g., increases attachment).
The RNA virus that the compositions were tested against for attachment behaviors was MS2. Bacteriophage are commonly utilized as surrogates of mammalian viruses in both medical and virology applications. MS2 phage is commonly utilized as a viral surrogate because of its size, morphology, environmental stability, non-human infectivity, and the ability for use in high throughput assays. Additionally, MS2 is commonly used as a surrogate to study the spread of human Norovirus (See, Tung-Thompson, et al, PLoS One, 2015, 10(8): e0134277, Dawson D J, et al, J App Micro, 2005, 98: 203-209, Jones, et al, J Hosp Infect, 1991, 17:279-85). The use of MS2 phage in hand sanitizer studies makes it an ideal surrogate to study the interaction of personal care products and viral attachment. It is believed that compositions including the adherent agents noted above would act in a substantially similar behavior to other RNA viruses as they did against MS2.
(§11) 1.5 Phage (MS2 and PhiX 174) Enumeration: • 1.5.1 Phage is prepared for use from the stock by diluting 1:1 in BPB. • 1.5.2 Spot Plate Method: • 1.5.2.1 A cell dilution of ˜10^6 CFU/mL of E. coli (E. coli K12 is used for MS2 phage and E. coli C is used for PhiX 174) is prepared from the prepared washed broth culture by diluting in sterile BPB. • 1.5.2.2 An inoculum check is performed on the bacterial dilution in triplicate. • 1.5.2.3 In a 96 well plate, columns 1-12 are filled with 180 μL of the 10^6 CFU/ml E. coli suspension in BPB • 1.5.2.4 20 μL of the samples to be diluted is added in column 1. • 1.5.2.5 10-fold (10×Dilution) in BPB is performed from 10^1-10^12 by moving 20 μL from column 1 to column 2 and mixing. This is repeated, moving down the columns until column 12. • 1.5.2.6 20 μL (or 10 if agar permits) is spot plated on a large labelled OSA plate (spot plate every second column to avoid cross merging of spot plated phages. • 1.5.2.7 Plates are inverted & incubated for 24 h at 37° C. • 1.5.2.8 After 24 h the number of PFU is counted.
(§12) • 1.6.1 Preparation of compounds and coating compounds onto MBEC plate lid • 1.6.2 Using a positive displacement pipette aseptically add 200 μL of compounds to be tested to a sterile 96-well microplate according to the plate layout described below. • 1.6.3 Add 200 μL of each code to the appropriate well for sterility controls. • 1.6.4 Place the MBEC plate lid, peg side down into the 96-well microplate containing the test compound solutions. • 1.6.5 Allow the plate to sit at room temperature (25±3° C.) for 2 hrs. • 1.6.6 Remove the MBEC plate lid and allow the lid to dry at room temperature (25±3° C.) overnight in a laminar flow hood by spacing the MBEC plate lid from the MBEC plate trough with two 10 μL disposable loops. […]

Phi X 174 = assay: High Throughput Test to Quantify the Attachment of Phage to a Surface, DNA virus Phi X 174; set-up: species or system Phi X 174 bacteriophage; conditions: for Phi X 174 Percent Reduct. (%) / Phi X 174 Log. R (PFU/mL) compared to growth controls: pegs coated with compound in 5% glycerin and QS water, Con. Wt. %: #1,4,5,6 = 5, #2,3 = 2, #7,8,9 = 100, 1 hour phage contact; for Phi X 174 Log. R (PFU/mL) compared to growth controls: positive = inhibits attachment; for Effect against DNA viruses (Phi X 174), in words: positive logarithmic reduction at statistically significant level = anti-adherent
Experimental: as §10
The DNA virus that the compositions were tested against for attachment behaviors was Phi X 174. Bacteriophage are commonly utilized as surrogates of mammalian viruses in both medical and virology applications. Phi X 174 is commonly utilized as a viral surrogate because of its size, morphology, environmental stability, and non-human infectivity, and the ability for use in high throughput assays. Phi X174 has been previously been used to study barrier efficacy, making it an ideal surrogate to study attachment to a surface (See, Haman and Nelson, Am J Infect Control, 1993, 21:289-96, O'Connell, et al, Clin Microb Infect, 2004, 10:322-6, ASTM F1671/F1671M-13, Standard Test Method for Resistance of Materials Used in Protective Clothing to Penetration by Blood-Borne Pathogens Using Phi X174 Bacteriophage Penetration as a Test System). Thus, it is well accepted by those of ordinary skill in the art that Phi X 174 serves as a surrogate for other DNA viruses, and the compositions including the adherent agents noted above would act in a substantially similar behavior to other DNA viruses as they did against Phi X 174.
as §11, §12

| SMILES | Ratio of E. coli growth on treated pegs to untreated pegs (%) (E. coli ATCC 11229) | Ratio of S. aureus growth on treated pegs to untreated pegs (%) (S. aureus ATCC 6538) | MS2 Percent Reduct. (%) (MS2) | MS2 Log R (PFU/mL) compared to growth controls (MS2) [PFU/mL] | Effect against RNA viruses (MS2), in words (MS2) | Phi X 174 Percent Reduct. (%) (Phi X 174) | Phi X 174 Log. R (PFU/mL) compared to growth controls (Phi X 174) [PFU/mL] | Effect against DNA viruses (Phi X 174), in words (Phi X 174) |
| --- | --- | --- | --- | --- | --- | --- | --- | --- |
| CCCCCCCCCCCCCCCCCC(=O)OCC(CC)CCCC (stereo not shown) [Compound 7, Ethylhexyl Stearate] | 48.4 | 68.6 | 87.46 | 0.90 | anti-adherent | 98.58 | 1.85 | anti-adherent |
| CCCCC(CC)COC(=O)c1ccccc1O (stereo not shown) [Compound 8, Ethylhexyl Salicylate] | 111.1 | 75.4 | 85.40 | 0.84 |  | 91.45 | 1.07 |  |
| CCCCC(CC)COC(=O)C(C#N)=C(c1ccccc1)c1ccccc1 (stereo not shown) [Compound 9, Octocrylene] | 114.1 | 81.9 | −30.27 | −0.11 | neutral | 93.44 | 1.18 | anti-adherent |
